Laboratory results from patent US20200330400A1, “METHODS FOR THE TREATMENT OF CANCER USING COENZYME Q10 AND FATTY ACID METABOLISM INHIBITORS” (Berg LLC, priority 2016, published 2020).

Tests used:
[1] = tested on: MDA-MB231 breast cancer cells; assay: Cell viability of MDA-MB231 breast cancer cells exposed to Coenzyme Q10 alone or with fatty acid metabolism inhibitors; format: cell-based, human; settings: for Sensitivity of cells to Coenzyme Q10 when treated in combination (shift of Coenzyme Q10 dose-response curve): MDA-MB231, co-treatment with named agent
Description: (§1) Cell viability was assessed in MDA-MB231 and SkBr-3 breast cancer cells exposed to Coenzyme Q10 alone or in combination with the fatty acid metabolism inhibitors C75, etomoxir, and trimetazidine, as well as a more pleiotropic fatty acid metabolism modulator, metformin. […] Metformin is used clinically as an anti-diabetic agent to suppress glucose production by the liver; however, the mechanism of action remains incompletely understood.
(§2) Coenzyme Q10 was applied to the cells in a 4% Coenzyme Q10 nanosuspension formulation (as described in WO 2011/112900, the entire contents of which are expressly incorporated herein by reference) comprising a phosphatidylcholine (e.g., dimyristoylphosphatidyl choline (DMPC)).

[2] = tested on: SKBr-3 breast cancer cells; assay: Cell viability of SKBr-3 breast cancer cells exposed to Coenzyme Q10 alone or with fatty acid metabolism inhibitors; format: cell-based; settings: for Sensitivity of cells to Coenzyme Q10 when treated in combination (shift of Coenzyme Q10 dose-response curve): SkBr-3, co-treatment with named agent
Description: as §1, §2

[3] = tested on: MIA PaCa-2 pancreatic cancer cells; assay: Cell viability of MIA PaCa-2 pancreatic cancer cells exposed to Coenzyme Q10 alone or with fatty acid metabolism inhibitors; format: cell-based; settings: for Sensitivity of cells to Coenzyme Q10 when treated in combination (reduced viability): co-treatment with named agent
Text: Cell viability was next assessed in MIA PaCa-2 pancreatic cancer cells exposed to Coenzyme Q10 alone or in combination with the fatty acid metabolism inhibitors C75, etomoxir, trimetazidine, metformin, and the Stearoyl-CoA desaturase-1 (SCD-1) inhibitor A939572. […] SCD-1 is an endoplasmic reticulum enzyme that catalyzes the formation of the monounsaturated fatty acids oleic acid and palmitoleic acid from stearoyl-CoA and palmitoyl-CoA. Oleic acid and palmitoleic acid are major components of membrane phospholipids, cholesterol esters and alkyl-diacylglycerol. Thus SCD-1 is a key enzyme in fatty acid metabolism. Inhibition of SCD-1 results in depletion of mono-unsaturated fatty acids and reduction of lipid storage.

[4] = tested on: fatty acid metabolism genes FASN, CPT1, ACSL1 and DGAT1; assay: mRNA expression of fatty acid metabolism genes in MDA-MB231 cells treated with Coenzyme Q10; format: cell-based, human; settings: Coenzyme Q10 alone
Text: FASN catalyzes the synthesis of the fatty acid palmitate (C16:0, a long-chain saturated fatty acid) from acetyl-CoA and malonyl-CoA, in the presence of NADPH. CPT-1 is a mitochondrial enzyme responsible for the formation of acyl carnitines by catalyzing the transfer of the acyl group of a long-chain fatty acyl-CoA from coenzyme A to l-carnitine. CPT-1 mediated formation of acyl carnitine allows for subsequent movement of the acyl carnitine from the cytosol into the intermembrane space of mitochondria. ACSL1 activates the degradation of complex fatty acids. Specifically, this enzyme catalyzes the formation of fatty acyl-CoA by a two-step process proceeding through an adenylated intermediate. DGAT1 catalyzes the formation of triglycerides from diacylglycerol and Acyl-CoA. The reaction catalyzed by DGAT is considered the terminal and only committed step in triglyceride synthesis and to be essential for the formation of adipose tissue.

[5] = tested on: MDA-MB231 breast cancer cells; assay: Free glycerol, DAG and TAG content in MDA-MB231 cells treated with Coenzyme Q10; format: cell-based, human; settings: Coenzyme Q10 treatment
Text: FIGS. 6B and 6C show diacylglyceride (DAG) (B), and triacylglyceride (TAG) content (C) in MDA-MB231 breast cancer cells treated with Coenzyme Q10.
To further evaluate the effect of Coenzyme Q10 on cancer cell lipid composition, structural lipidomic analysis was used to assess the metabolic fate of the lipid components of the Coenzyme Q10 formulation itself, such as DMPC. DMPC is a 14:0 lipid which is not found endogenously in human cells. Accordingly, it was possible to distinguish between DMPC-containing species based on the length of the fatty acid chains, e.g. 28:0 DAG and 42:0 TAG are not found endogenously. […] Accordingly, cancer cells treated with lipid-containing formulations may be especially sensitive to fatty acid metabolism inhibitors, due to the increased fatty acid metabolism activity resulting from storage and degradation of the lipid formulation components.

SMILES	Sensitivity of cells to Coenzyme Q10 when treated in combination (shift of Coenzyme Q10 dose-response curve) [1]	Sensitivity of cells to Coenzyme Q10 when treated in combination (shift of Coenzyme Q10 dose-response curve) [2]	Sensitivity of cells to Coenzyme Q10 when treated in combination (reduced viability) [3]	also measured
CN(C)C(=N)N=C(N)N [Metformin]	did not alter cytotoxic responses to Coenzyme Q10	did not alter cytotoxic responses to Coenzyme Q10	more sensitive to Coenzyme Q10	Cell viability ([3]; Coenzyme Q10 and 0.5 mM metformin): lower viability than cells treated with Coenzyme Q10 alone; Cell viability ([3]; Coenzyme Q10 and 1 mM or 5 mM metformin): lower viability than cells treated with Coenzyme Q10 and 0.5 mM metformin
CCOC(=O)C1(CCCCCCOc2ccc(Cl)cc2)CO1 (stereo not shown) [Etomoxir, 2-(6-(4-chlorophenoxy)-hexyl)-oxirane-2-carboxylic acid ethyl ester]	more sensitive to Coenzyme Q10	more sensitive to Coenzyme Q10	more sensitive to Coenzyme Q10	
COC1=C(OC)C(=O)C(C/C=C(\C)CC/C=C(\C)CC/C=C(\C)CC/C=C(\C)CC/C=C(\C)CC/C=C(\C)CC/C=C(\C)CC/C=C(\C)CC/C=C(\C)CCC=C(C)C)=C(C)C1=O [Coenzyme Q10]				EC50 ([1]; EC50 of Coenzyme Q10 (4% nanosuspension) alone or plus named inhibitor, inhibitor concentration not in table (FIGS. 1-4: C75 5 μM, Etomoxir 50 μM, Trimetazidine 375 μM, metformin 500 μM)): 165 µM; EC50 ([2]; EC50 of Coenzyme Q10 (4% nanosuspension) alone or plus named inhibitor, inhibitor concentration not in table): 599 µM; EC50 ([3]; Coenzyme Q10 alone (A939572 experiment, FIG. 10)): 142 µM; EC50 ([3]; Coenzyme Q10 alone (metformin experiment, FIG. 8)): 261 µM; EC50 ([3]; Coenzyme Q10 alone or with Etomoxir 100 μM, C75 10 μM or Trimetazidine 250 μM (FIG. 9)): 284 µM; mRNA expression of FASN, CPT-1, ACSL1 and DGAT1 [4]: dose- and time-dependent increase in mRNA expression; Diacylglyceride (DAG), triacylglyceride (TAG) and glycerol content [5]: accumulation of diacylglyceride (DAG), triacylglyceride (TAG) and the triglyceride backbone, glycerol
CNC(=O)c1cccc(NC(=O)N2CCC(Oc3ccccc3Cl)CC2)c1 [A939572]			more sensitive to Coenzyme Q10	
COc1ccc(CN2CCNCC2)c(OC)c1OC [Trimetazidine]	more sensitive to Coenzyme Q10	more sensitive to Coenzyme Q10	more sensitive to Coenzyme Q10	
C=C1C(=O)OC(CCCCCCCC)C1C(=O)O (stereo not shown) [C75]	more sensitive to Coenzyme Q10	more sensitive to Coenzyme Q10	more sensitive to Coenzyme Q10	
